Patent publication US6469027B1, “N-methyl-D-aspartate (NMDA) receptor blockers for the prevention of atherosclerosis” (The Board of Regents of the University of Nebraska, priority 1996, dated 2002)
Entries after “also recorded” stand apart in the source; their conditions may differ.

How the values were obtained:
[1] = test system: N-VSMC; assay: Cell proliferation (cell number) of N-VSMC cultures; type: cell-based, chicken; details: 100 μM H[cys]; between day 6 and 10; 1% serum
Procedure: FIGS. 5A and 5B are graphs illustrating cell growth and DNA synthesis of N-VSMC cultures. (A) Cells were cultured in M199 supplemented with 1% FBS in the presence and absence of 100 μM H[cys]. The medium was renewed every three days and cell numbers were determined by Coulter counter or emocytometer. Each point represents the mean of quadruplicate samples counted six times. (B) Cells were grown to confluency, growth arrested in M199 and 1 μg/ml of bovine serum albumin for two days. Cultures were exposed to various concentrations of H[cys] (0.01-1000 μM) for 30 h, pulse labeled for 6 h with 2 μCi/ml of [^3H]thymidine. The amount of [^3H]thymidine incorporation was determined by scintillation spectrophotometry. Results are shown as the mean of ±S.E.M.
(§1) FIGS. 7A-7C are graphs illustrating the effect of H[cys] on diacylglycerol content in N-VSMC. (A) Time course of changes of membrane diacylglycerol content cell treated with 100μM H[cys] for the various times. Cells were recovered, membrane lipids extracted and diacylglycerol amounts determined as described in Methods. Results are expressed as the mean ± standard error of quadruplicate incubations from six independent experiments. (B) Effects of varying concentrations of H[cys] on diacylglycerol synthesis. Cells were treated for 30 min with different concentrations of H[cys] and membrane lipids were isolated and the diacylglycerol content determined. (C) Effect of PKC inhibitors on H[cys] mediated cell proliferation. N-VSMC cultures were grown in 1% FBS and 100 μM H[cys] in the presence and absence of staurosporine and cheleyrithrine chloride for the times (days-d) indicated. Cells were counted in quadruplicate in a Coulter counter every three days. Values represent the mean ±S.D. from four independent experiments.
Smooth Muscle Culture: The thoracic (N) and abdominal (M) aorta of normal 16 and 18-day embryos were cleaned of fat, and the intima-media was isolated from the adventitia. The intima-media was enzymatically dispersed into a single cell suspensions by a combination of collagenase and elastase followed by trypsin. VSMC were placed in primary culture at a constant density of 2×10^4 cells/cm^2 in multiwell plates or 100 mm culture plates in Medium 199 supplemented with 10% fetal bovine serum (FMS) and 2 mM glutamine, in an atmosphere of 95% air: 5% Co2 at 37° C. Primary cultures were grown for 7 days before they were seeded into first passage at the same cell density and grown to confluence. Experiments were carried out between passages 3-6. Experimental conditions for all cells included 48 h in Medium 199 supplemented with 1% FBS prior to initiating and experiment.

[2] = test system: diacylglycerol; assay: sn-1,2-Diacylglycerol assay in VSMC; type: cell-based, chicken
Procedure: as §1
.sn-1,2-Diacylglycerol assay: VSMC were treated with 0.01 to 100 μM H[cys] for 15-60 min. Cells were harvested and lipids were extracted by the method of Priess et al., (18). The analysis of diacylglycerol synthesis was as described previously by Wrenn et al. Wrenn, R. W. et al. (1993). […]

[3] = test system: Thoracic aorta VSMC from E14 embryos; assay: Intracellular Ca++ by Fura 2 fluorometry; type: cell-based, chicken; details: 200 μM Hcy
Procedure: FIGS. 8A and 8B are graphs illustrating E14 embryonic neural crest-derived response to Hcy. (A) Normal E14 cell response; (B) Ca++ influx is prevented by 15 min pretreatment with NMDA receptor blocker MK801, which acts at the NMDA receptor calcium channel.
The most common signaling device for mitosis is calcium influx. Therefore, the inventors measured the change in intracellular Ca^++ by Fura 2 fluorometry. Thoracic aorta VSMC from E14 embryos were harvested and grown on coverslips using the procedure set forth above. Fura 2 was added during 45 minutes at room temperature. Then the cover slips were placed in a photometer. Fura 2 was excited at 350 and 380 nm with a xenon light source, appropriate monochromators and a chopper (Deltascan, Princeton). Emitted signals passed through a 510±20 band pass filter. When the cells were treated with a solution of 200 μM Hcy, there was a rapid flux of Ca^++ that reached a plateau in about 50 seconds, and remained elevated for the duration of the 500 sec measurement interval as shown in FIGS. 8A and 8B. Similar results have been found with adult rabbit aortic smooth muscle cells, as set forth below.

[4] = test system: mouse aortic smooth muscle cells; assay: 3H thymidine uptake / mitogenic effect in mouse aortic smooth muscle cells; type: cell-based
Procedure: The mitogenic and other effects of growth factors are exaggerated in late embryonic or fetal smooth muscle cells, and cells in the late fetal state provide a high contrast picture of their subsequent, post-natal, responses. To take advantage of this effect, late fetal C57BL/6×129 mice were obtained and aortic smooth muscle cell cultures were prepared according to the inventors' previously published methods set forth above. These cells were treated with a series of Hcy dilutions (10 μM-100 μM) as described above. […] Subsequently, the fetal mouse smooth muscle cells were treated with a number of variations of the incubation medium containing the Hcy. In no case did Hcy produce a measurable mitogenic effect. […] Aortic smooth muscle cells were obtained from mice of this strain that were 3-6 months old, and were treated with various concentrations of Hcy.

[5] = test system: Myb protein; assay: Expression of Myb protein in rabbit aortic cells; type: cell-based
Procedure: (§2) For each of the following experiments, aortic smooth muscle cells were obtained from 2-3 lb. New Zealand rabbits; these cells were cultured as described above, and evaluated for their responses to Hcy.

[6] = test system: Rabbit aortic cells; assay: Mitogenesis in rabbit aortic cells; type: cell-based
Procedure: as §2

[7] = test system: human aortic smooth muscle cells; assay: 3H thymidine uptake in human aortic smooth muscle cells; type: cell-based
Procedure: FIG. 13 is a graph illustrating 3 H thymidine uptake of human aortic smooth muscle cells in response to differing concentrations of Hcy.
Smooth muscle cell cultures were established from samples of thoracic aorta obtained during organ transplantation. Confluent early passage cells were growth arrested by serum starvation, then they were treated with Hcy in serum free (defined) medium.

[8] = test system: TA-VSMCs; assay: [3H]thymidine labeling (DNA synthesis) in TA-VSMCs; type: cell-based; details: 0.1 to 1 mM
Description: Effect of calcium channel activation on DNA synthesis. Effect of glutamate receptor calcium channels and L-type calcium channels activation was examined by measuring [^3H]thymidine labeling.

[9] = test system: c-myb; assay: c-myb expression in TA-VSMCs; type: cell-based
[10] = test system: N-VSMC; assay: Cell proliferation (cell number) of N-VSMC cultures; type: cell-based, chicken; details: 0.01 to 100 μM for 36 h

With N[C@@H](CCS)C(=O)O [homocysteine] the cell number increased [1] was 9 fold, the “concentration at which increase in DAG membrane levels was first evident” value ([2]; 30 min) was 3 µM and the “increase in DAG production” value ([2]; treated for 15-60 min) was 3 fold. For the same compound, the “time for Ca++ flux to reach a plateau” value [3] was “about 50 seconds”, the mitogenic effect ([4]; adult C57Bl/6 mice 3-6 months old, various concentrations, listed as Hcy) was “no mitogenic effect; also recorded: No mitogenic result” and the 3H thymidine uptake ([4]; late fetal C57BL/6×129 mice, 10 μM-100 μM) was “no enhancement”. For the same compound, the “expression of the Myb protein” value [5] was “dose-responsive expression”, the mitogenic response [6] was “robust mitogenic response” and the “effect on DNA synthesis” value ([7]; human cell cultures of N-VSMC (data not shown)) was “observed”. The “uptake of 3H thymidine” value ([7]; thoracic aorta cells, serum free medium) was “significant, dose-responsive increase”, the DNA synthesis increased [8] was 6 fold and the c-myb synthesis [9] was “dose-dependent increase”. The “concentration of maximal effect on c-myb synthesis” value [9] was less than 2.5 mM and the “cell number in the absence of serum” value [10] was “no increase in cell number”.
